In patent US4512986A, “Progrestationally active steroids” (priority 1983, dated 1985):
“Also recorded” adds a separate entry of the source. Like-named read-outs stand apart in the source and are kept apart here.

Tests used:
[1] = system: androgen target organs of castrate immature male rats; test: Anti-androgenic activity in the castrate immature rat assay; assay type: in vivo; details: for anti-androgenic activity, in words: with testosterone sc 400 μg/rat/day, doses up to 400 μg/rat/day (progestagen oral; progesterone sc)
Method: The oral anti-androgenic activity of 6-methyl-6-dehydro-17α-ethynylprogesterone was evaluated in the castrate immature male rat assay [Lerner et al., Proc. Soc. […] The assay is briefly described in the footnotes to Table 11.
*This assay employs castrate immature rats. For methods refer to Lerner,
L. J., A. Bianchi and A. Borman, Proc. Soc.
**Groups of rats (7/group) were given daily injections of 0.3 ml sesame
oil (control) or compound (in 0.3 ml sesame oil) for 7 days. Some groups
also concurrently received progestational compounds by the sc or oral
route of administration in order to evaluate antiandrogenic activity. One
day after the final doses, the animals were sacrificed and the androgen
target organs indicated were weighed.
***Statistically significant (p < 0.05) lower organ weights versus the
testosterone, sc, (400 μg/rat/day) group as determined by Analysis of
Variance coupled with Duncan's Multiple Range Test.

[2] = system: endometrium of estrogen-primed ovariectomized or climacteric women; details: oral; cited from earlier work
[3] = general knowledge; cited from earlier work
[4] = system: estrogen-primed immature rabbits; details: cited from earlier work
[5] = target: T1, Cytosol Progesterone Receptor of the Estrogen-primed Immature Rabbit Uterus (Oryctolagus cuniculus, UniProt P06186); test: Relative binding affinity for progesterone receptor (competition with 3H-progesterone); parameters: species or system rabbit (New Zealand White); details: 16-18 hour incubation, progesterone = 100
T1 construct: cytosol progesterone receptor of the estrogen-primed immature rabbit uterus; tissue Dutchland Laboratories, Inc., Denver, Pa (animals); host or cells: uterus cytosol of estradiol-treated immature female New Zealand White rabbits
T1 sequence (P06186 1-930): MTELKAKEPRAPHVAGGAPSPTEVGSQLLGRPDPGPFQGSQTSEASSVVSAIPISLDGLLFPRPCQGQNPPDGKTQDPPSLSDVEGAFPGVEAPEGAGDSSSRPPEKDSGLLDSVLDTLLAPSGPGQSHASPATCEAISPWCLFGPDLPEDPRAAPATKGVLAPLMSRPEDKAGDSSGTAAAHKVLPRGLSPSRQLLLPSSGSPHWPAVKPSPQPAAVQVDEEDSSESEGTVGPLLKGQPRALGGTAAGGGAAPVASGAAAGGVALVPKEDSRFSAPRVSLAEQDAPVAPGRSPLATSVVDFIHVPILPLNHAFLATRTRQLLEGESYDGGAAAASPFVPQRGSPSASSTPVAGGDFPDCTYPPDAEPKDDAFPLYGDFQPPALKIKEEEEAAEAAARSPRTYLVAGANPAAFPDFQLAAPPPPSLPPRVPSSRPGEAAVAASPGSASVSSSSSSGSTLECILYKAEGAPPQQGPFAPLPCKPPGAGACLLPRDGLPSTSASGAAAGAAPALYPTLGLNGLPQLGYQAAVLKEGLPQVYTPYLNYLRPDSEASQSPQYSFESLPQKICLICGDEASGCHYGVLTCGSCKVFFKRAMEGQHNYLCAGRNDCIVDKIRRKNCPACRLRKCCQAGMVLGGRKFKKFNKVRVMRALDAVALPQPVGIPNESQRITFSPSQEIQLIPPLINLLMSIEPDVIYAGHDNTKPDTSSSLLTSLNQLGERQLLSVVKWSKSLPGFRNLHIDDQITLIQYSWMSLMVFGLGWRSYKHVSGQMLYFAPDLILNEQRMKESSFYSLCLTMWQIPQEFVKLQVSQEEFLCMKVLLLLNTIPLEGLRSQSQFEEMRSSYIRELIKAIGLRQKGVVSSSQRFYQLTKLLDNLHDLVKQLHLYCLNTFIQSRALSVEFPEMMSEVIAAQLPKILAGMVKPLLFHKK
Method: RBA values recorded at 0° C. after short incubation times (e.g., 2 hr) mainly reflect differences in the association rate constants of the competing ligands, whereas those measured after long incubation times (e.g., 16 to 24 hr) and/or higher temperatures predominantly are influenced by differences in the dissociation rate constants of the competing ligands. RBA's determined after short incubation times primarily reflect the association of the competitor compared to the natural hormone. Conversely, RBA's measured after long incubation times reflect the dissociation rate of the competitor compared to the natural hormone.
The assay components are combined, allowed to equilibrate, and unbound radioactivity removed by charcoal adsorption.
Animal species. Immature female New Zealand White rabbits weighing 0.8 to 1.0 kg (Dutchland Laboratories, Inc., Denver, Pa).
Pretreatment. Subcutaneous treatment with 15 μg 17β-estradiol/0.6 ml sesame oil each morning (0830 to 0930 hr) for three days. Animals sacrificed 24 hr after final injection.
Tissue. Uterus; each uterus weighed about 1.0 g and two or three uteri were pooled for each assay.
Buffer. (A) 0.01M TES, pH 7.4, 1 mM EDTA, 0.012M thioglycerol and 30% glycerol for cytosol preparation and ^3 H-steroid, unlabeled hormone and compound solutions. (B) 0.01M TES, pH 7.4, 1 mM EDTA and 0.012M thioglycerol for charcoal solution.
Homogenization. Five or six 5-second bursts with 30 second cooling periods between bursts using Brinkman Polytron Pt. 10 at 3.5 rheostat setting.
Temperature. 0°-4° C. for all steps.
Centrifugation. 45,000 rpm for 1 hr, 50 Ti rotor, Beckman L8-80 ultracentrifuge.
Incubation. 16-18 hr at 4°-6° C.
Concentations. 1×10^-10 M to 1×10^-5 M (7 concentrations).
Method. Charcoal adsorption method used to remove unbound radioactivity. Five-tenths ml of dextran-coated charcoal (0.5% Norit A and 0.05% dextran T-70) added to all tubes except total radioactivity tubes (0.5 ml buffer [B] added), tubes vortexed 3-5 sec, allowed to sit for 10 minutes and centrifuged 10 minutes at 2000 rpm in Beckman TJ-6 centrifuge at 0°-4° C.
Data Interpretation. […] The relative binding affinity (RBA) of each compound was calculated by using the following equation. [formula] where

[6] = system: uterine endometrium of estrone-primed immature rabbits; test: Clauberg assay (progestational activity, McPhail); assay type: in vivo, rabbit (New Zealand White); details: for Uterine Weight (X ± S.D.) / McPhail Index (0-4) (X ± S.D.): oral; for McPhail Index (0-4) (X ± S.D.): 0 none, 4 maximal
[7] = oral 25 μg/rat daily + testosterone sc 400
[8] = oral 100 μg/rat daily + testosterone sc 400
[9] = oral 400 μg/rat daily + testosterone sc 400
[10] = 100 μg/rabbit daily, listed as 6α-Methyl-17α-acetoxyprogesterone

Structure (SMILES)	Levator Ani weight (X ± S.D.) [1, 7]	Seminal Vesicles weight (X ± S.D.) [1, 7]	Ventral Prostate weight (X ± S.D.) [1, 7]	Levator Ani weight (X ± S.D.) [1, 8]	Seminal Vesicles weight (X ± S.D.) [1, 8]	Ventral Prostate weight (X ± S.D.) [1, 8]	Levator Ani weight (X ± S.D.) [1, 9]	Seminal Vesicles weight (X ± S.D.) [1, 9]	Ventral Prostate weight (X ± S.D.) [1, 9]	Threshold or effective dose, Kaufman Assay [2]	oral progestational activity, in words [3]	Threshold or effective dose, Clauberg Assay ([4]; oral)	Threshold or effective dose, Clauberg Assay ([4]; s.c. (i.m.))	RBA ([5]; Assay 6)	Uterine Weight (X ± S.D.) ([6]; 5 μg/rabbit daily)	McPhail Index (0-4) (X ± S.D.) ([6]; 5 μg/rabbit daily)	Uterine Weight (X ± S.D.) ([6]; 10 μg/rabbit daily)	McPhail Index (0-4) (X ± S.D.) ([6]; 10 μg/rabbit daily)	Uterine Weight (X ± S.D.) ([6]; 25 μg/rabbit daily)	McPhail Index (0-4) (X ± S.D.) ([6]; 25 μg/rabbit daily)	also measured
CC(=O)O[C@]1(C(C)=O)CC[C@H]2[C@@H]3C=C(C)C4=CC(=O)CC[C@]4(C)[C@H]3CC[C@@]21C [Megestrol Acetate, 6-Methyl-6-dehydro-17α-acetoxyprogesterone]	50 ± 8 mg	125 ± 23 mg	42 ± 20 mg	55 ± 12 mg	128 ± 36 mg	54 ± 13 mg	65 ± 12 mg	120 ± 21 mg	48 ± 15 mg	35-50 mg/cycle	potent orally active progestational compounds	0.03 mg/animal	0.01-0.03 mg/animal								anti-androgenic activity, in words [1]: significant anti-androgenic activity
CC(=O)O[C@]1(C(C)=O)CC[C@H]2[C@@H]3C[C@H](C)C4=CC(=O)CC[C@]4(C)[C@H]3CC[C@@]21C [Medroxyprogesterone Acetate, 6α-Methyl-17α-acetoxyprogesterone, reference compound]										40-70 mg/cycle	potent orally active progestational compounds	0.01-0.03 mg/animal	0.01-0.03 mg/animal	143%	1.08 ± 0.01 g	0.29 ± 0.06	1.35 ± 0.34 g	0.71 ± 0.06	1.12 ± 0.19 g	0.25 ± 0.10	RBA ([5]; Assay 4): 57%; RBA ([5]; Assay 5): 133%; Uterine Weight (X ± S.D.) ([6]; 50 μg/rabbit daily): 2.82 ± 0.92 g; McPhail Index (0-4) (X ± S.D.) ([6]; 50 μg/rabbit daily): 3.00 ± 0.83; Uterine Weight (X ± S.D.) ([6]; 100 μg/rabbit daily): 2.65 ± 0.35 g; McPhail Index (0-4) (X ± S.D.) ([6]; 100 μg/rabbit daily): 3.90 ± 0.13; McPhail Index (0-4) (X ± S.D.) [6, 10]: 2.66 ± 1.10; Uterine Weight (X ± S.D.) [6, 10]: 2.11 ± 1.28 g; Uterine Weight (X ± S.D.) ([6]; 200 μg/rabbit daily): 3.30 ± 0.41 g; McPhail Index (0-4) (X ± S.D.) ([6]; 200 μg/rabbit daily): 4.00 ± 0.00; Uterine Weight (X ± S.D.) ([6]; 400 μg/rabbit daily): 3.73 ± 0.61 g; McPhail Index (0-4) (X ± S.D.) ([6]; 400 μg/rabbit daily): 4.00 ± 0.00
C#C[C@]1(C(C)=O)CC[C@H]2[C@@H]3C=C(C)C4=CC(=O)CC[C@]4(C)[C@H]3CC[C@@]21C [17α-Ethynyl-6-methylpregna-4,6-diene-3,20-dione]	63 ± 13 mg	141 ± 43 mg	61 ± 13 mg	68 ± 13 mg	141 ± 9 mg	63 ± 25 mg	66 ± 9 mg	129 ± 37 mg	43 ± 12 mg					104%	0.99 ± 0.34 g	0.00 ± 0.0	1.11 ± 0.23 g	0.17 ± 0.12	2.93 ± 1.33 g	3.33 ± 0.62	anti-androgenic activity, in words ([1]; listed as 6-methyl-6-dehydro-17α-ethynylprogesterone): significant depression of ventral prostate weight; also recorded: Seminal vesicle weight also was depressed at the same dose level, but the decrease was not statistically significant; potency relative to levonorgestrel, in words ([6]; both given orally): equipotent with levonorgestrel; progestational potency relative to subcutaneous progesterone, in words ([6]; compound given orally, progesterone sc): more than eight times as potent as progesterone administered subcutaneously; Uterine Weight (X ± S.D.) ([6]; 50 μg/rabbit daily): 3.59 ± 0.43 g; McPhail Index (0-4) (X ± S.D.) ([6]; 50 μg/rabbit daily): 4.00 ± 0.00
C#C[C@]1(O)CC[C@H]2[C@@H]3CCC4=CC(=O)CC[C@@H]4[C@H]3CC[C@@]21C [Norethisterone]										100-150 mg/cycle			0.1 mg/animal								
